Test [1] addresses biotinylated human Gal-3 (hGal-3) (Homo sapiens, UniProt P17931). The experiment in a line: Competitive binding assay: biotinylated hGal-3 binding to microplate-adsorbed asialofetuin (ASF), spectrophotometric. The method, boiled down: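 Serially diluted compounds competed with asialofetuin on the plate for biotinylated human Gal-3 during a 3 h incubation at 4° C. Streptavidin-peroxidase with ABTS gave the spectrophotometric signal. IC50 values were averaged over repeat runs.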

The target of a further test is human Gal-1 (hGal-1) (Homo sapiens, UniProt P09382). Kind of test: Competitive binding assay: biotinylated hGal-1 binding to microplate-adsorbed asialofetuin (ASF), spectrophotometric. As to conditions: hGal-1 binding to asialofetuin; Table 15; R and S epimers of selected Examples also listed; read-out: IC50 (Galectin-1 inhibition). The method, boiled down: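 Spectrophotometric competition readout with ABTS after streptavidin-peroxidase (80 ng/mL, 1 h, 4 °C) detection of bound biotinylated hGal-1.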

The mark [2] stands for this setting: Table 12, hGal-3, read-out: IC50 (Gal-3 inhibition).
The mark [3] stands for this setting: Table 8, hGal-3, read-out: IC50 (Gal-3 inhibition).
The mark [4] stands for this setting: Gal-3 inhibition, Table 5, read-out: IC50.
Where [5] appears, read: Table 6, hGal-3, read-out: IC50 (Gal-3 inhibition).

Like-named read-outs stand apart in the source and are kept apart here.

Chain of biotinylated human Gal-3 (hGal-3) (P17931 whole entry): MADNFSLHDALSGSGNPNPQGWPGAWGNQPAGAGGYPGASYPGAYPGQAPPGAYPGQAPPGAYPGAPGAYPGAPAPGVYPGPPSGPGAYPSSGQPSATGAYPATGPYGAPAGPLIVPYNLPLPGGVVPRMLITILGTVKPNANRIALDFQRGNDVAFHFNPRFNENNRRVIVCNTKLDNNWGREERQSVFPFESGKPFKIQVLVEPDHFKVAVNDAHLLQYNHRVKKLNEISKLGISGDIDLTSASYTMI
Chain of human Gal-1 (hGal-1) (P09382 whole entry): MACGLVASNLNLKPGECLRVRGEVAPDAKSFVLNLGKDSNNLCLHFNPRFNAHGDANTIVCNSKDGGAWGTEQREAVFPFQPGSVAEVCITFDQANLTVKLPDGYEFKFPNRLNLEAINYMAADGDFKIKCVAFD

Regarding `CCN(C)C(=O)C(S[C@@H]1O[C@H](CO)[C@H](O)[C@H](n2cc(-c3cc(F)cc(F)c3)nn2)[C@H]1O)C1(O)CCOCC1` (stereo partly drawn) [Example 10.41.203., 2-(((2S,3R,4S,5R,6R)-4-(4-(3,5-Difluorophenyl)-1H-1,2,3-triazol-1-yl)-3,5-dihydroxy-6-(hydroxymethyl)tetrahydro-2H-pyran-2-yl)thio)-N-ethyl-2-(4-hydroxytetrahydro-2H-pyran-4-yl)-N-methylacetamide], the half-maximal inhibitory concentration (IC50) in test [1] (Table 11, hGal-3, read-out: IC50 (Gal-3 inhibition)) turned out to be 100 nM; on human Gal-1 (hGal-1), 270 nM.
Regarding `CO[C@@H]1[C@@H](n2cc(-c3cc(F)c(F)c(F)c3)nn2)[C@@H](O)[C@@H](CO)O[C@H]1SC(C(=O)NC1CC(F)(F)C1)C1(O)CCC(F)(F)CC1` (stereo partly drawn) [Example 2.44.253.I., 2-(4,4-Difluoro-1-hydroxycyclohexyl)-N-(3,3-difluorocyclobutyl)-2-(((2S,3R,4S,5R,6R)-5-hydroxy-6-(hydroxymethyl)-3-methoxy-4-(4-(3,4,5-trifluorophenyl)-1H-1,2,3-triazol-1-yl)tetrahydro-2H-pyran-2-yl)thio)acetamide], the IC50 in test [1] (setting [2]) was 160 nM; on human Gal-1 (hGal-1) it was 670 nM.
With `CCN(C)C(=O)[C@H](S[C@@H]1O[C@H](CO)[C@H](O)[C@H](n2cc(-c3cc(F)c(F)c(F)c3)nn2)[C@H]1O)C1(O)CCN(S(C)(=O)=O)CC1` [Example 2.47.203R., (R)-2-(((2S,3R,4S,5R,6R)-3,5-Dihydroxy-6-(hydroxymethyl)-4-(4-(3,4,5-trifluorophenyl)-1H-1,2,3-triazol-1-yl)tetrahydro-2H-pyran-2-yl)thio)-N-ethyl-2-(4-hydroxy-1-(methylsulfonyl)piperidin-4-yl)-N-methylacetamide], the concentration for half-maximal inhibition (IC50) in test [1] (setting [3]) amounted to 6770 nM; at human Gal-1 (hGal-1) it was 33900 nM.
Take `CO[C@@H]1[C@@H](n2cc(-c3cc(F)c(F)c(F)c3)nn2)[C@@H](O)[C@@H](CO)O[C@H]1S[C@H](C(=O)N(C)CC(C)(C)F)C1(O)CCC(F)(F)CC1` [Example 2.44.222S.I., (S)-2-(4,4-Difluoro-1-hydroxycyclohexyl)-N-(2-fluoro-2-methylpropyl)-2-(((2S,3R,4S,5R,6R)-5-hydroxy-6-(hydroxymethyl)-3-methoxy-4-(4-(3,4,5-trifluorophenyl)-1H-1,2,3-triazol-1-yl)tetrahydro-2H-pyran-2-yl)thio)-N-methylacetamide]: the IC50 in test [1] (setting [2]) is 10 nM; on human Gal-1 (hGal-1), 70 nM.
As for “2-(1,1-Difluoro-6-hydroxyspiro[2.5]octan-6-yl)-1-(4,4-difluoropiperidin-1-yl)-2-(((2S,3R,4S,5R,6R)-5-hydroxy-6-(hydroxymethyl)-3-methoxy-4-(4-(3,4,5-trifluorophenyl)-1H-1,2,3-triazol-1-yl)tetrahydro-2H-pyran-2-yl)thio)ethan-1-one [Example 2.73.226.I.]”, the IC50 in test [1] (Table 13, hGal-3, read-out: IC50 (Gal-3 inhibition)) came out at 100 nM; at human Gal-1 (hGal-1), 150 nM.
`CCN(C)C(=O)[C@@H](S[C@@H]1O[C@H](CO)[C@H](O)[C@H](n2cc(-c3cc(F)c(F)c(F)c3)nn2)[C@H]1O)C1(O)CCOCC1` [Example 2.41.203S., (S)-2-(((2S,3R,4S,5R,6R)-3,5-Dihydroxy-6-(hydroxymethyl)-4-(4-(3,4,5-trifluorophenyl)-1H-1,2,3-triazol-1-yl)tetrahydro-2H-pyran-2-yl)thio)-N-ethyl-2-(4-hydroxytetrahydro-2H-pyran-4-yl)-N-methylacetamide]: the IC50 in test [1] (setting [4]) was 30 nM; on human Gal-1 (hGal-1) it was 67 nM.
For the molecule `CN(CC(F)(F)F)C(=O)C(S[C@@H]1O[C@H](CO)[C@H](O)[C@H](n2cc(-c3cc(F)c(F)c(F)c3)nn2)[C@H]1O)C1(O)CCCC1` (stereo partly drawn) [Example 2.38.219., 2-(((2S,3R,4S,5R,6R)-3,5-Dihydroxy-6-(hydroxymethyl)-4-(4-(3,4,5-trifluorophenyl)-1H-1,2,3-triazol-1-yl)tetrahydro-2H-pyran-2-yl)thio)-2-(1-hydroxycyclopentyl)-N-methyl-N-(2,2,2-trifluoroethyl)acetamide], the half-inhibitory concentration (IC50) was 40 nM in test [1] (setting [4]) and 110 nM on human Gal-1 (hGal-1).
As to “N-Cyclopropyl-4-(2-(ethyl(methyl)amino)-1-(((2S,3R,4S,5R,6R)-5-hydroxy-6-(hydroxymethyl)-3-methoxy-4-(4-(3,4,5-trifluorophenyl)-1H-1,2,3-triazol-1-yl)tetrahydro-2H-pyran-2-yl)thio)-2-oxoethyl)-4-hydroxypiperidine-1-carboxamide [Example 2.49.226.I.]”, the IC50 was 100 nM in test [1] (setting [3]) and 180 nM on human Gal-1 (hGal-1).
As to `CCN(C(=O)C(S[C@@H]1O[C@H](CO)[C@H](O)[C@H](n2cc(-c3cc(F)c(F)c(F)c3)nn2)[C@H]1OC)C1(O)CCC(F)(F)CC1)C1CCOCC1` (stereo partly shown) [Example 2.44.257.I.], the 50% inhibitory concentration (IC50) was determined as 70 nM in test [1] (Table 10, hGal-3, read-out: IC50 (Gal-3 inhibition)) and 180 nM on human Gal-1 (hGal-1).
Regarding `CCN(C)C(=O)[C@H](S[C@@H]1O[C@H](CO)[C@H](O)[C@H](n2cc(-c3cc(F)c(F)c(F)c3)nn2)[C@H]1OC)C1(O)CCN(C(=O)NC2CC2)CC1` [Example 2.49.226R.I., N-Cyclopropyl-4-((R)-2-(ethyl(methyl)amino)-1-(((2S,3R,4S,5R,6R)-5-hydroxy-6-(hydroxymethyl)-3-methoxy-4-(4-(3,4,5-trifluorophenyl)-1H-1,2,3-triazol-1-yl)tetrahydro-2H-pyran-2-yl)thio)-2-oxoethyl)-4-hydroxypiperidine-1-carboxamide], the IC50 was determined as 1740 nM in test [1] (setting [3]) and 80 nM on human Gal-1 (hGal-1).
As for `CN(CC1CC1)C(=O)[C@@H](S[C@@H]1O[C@H](CO)[C@H](O)[C@H](n2cc(-c3cc(F)c(F)c(F)c3)nn2)[C@H]1O)C1(O)CCC(F)(F)CC1` [Example 2.44.218S., (S)-N-(Cyclopropylmethyl)-2-(4,4-difluoro-1-hydroxycyclohexyl)-2-(((2S,3R,4S,5R,6R)-3,5-dihydroxy-6-(hydroxymethyl)-4-(4-(3,4,5-trifluorophenyl)-1H-1,2,3-triazol-1-yl)tetrahydro-2H-pyran-2-yl)thio)-N-methylacetamide], the IC50 was determined as 50 nM in test [1] (setting [4]) and 40 nM at human Gal-1 (hGal-1).
For `CN(CC(C)(C)F)C(=O)C(S[C@@H]1O[C@H](CO)[C@H](O)[C@H](n2cc(-c3cc(F)c(F)c(F)c3)nn2)[C@H]1O)C1(O)CCCCC1` (stereo partly drawn) [Example 2.39.222., 2-(((2S,3R,4S,5R,6R)-3,5-Dihydroxy-6-(hydroxymethyl)-4-(4-(3,4,5-trifluorophenyl)-1H-1,2,3-triazol-1-yl)tetrahydro-2H-pyran-2-yl)thio)-N-(2-fluoro-2-methylpropyl)-2-(1-hydroxycyclohexyl)-N-methylacetamide] the same measures were 50 nM and 120 nM.
`CN(Cc1ccccc1)C(=O)C(S[C@@H]1O[C@H](CO)[C@H](O)[C@H](n2cc(-c3cc(F)c(F)c(F)c3)nn2)[C@H]1O)C(C)(C)O` (stereo partly drawn) [Example 2.31.207., N-Benzyl-2-(((2S,3R,4S,5R,6R)-3,5-dihydroxy-6-(hydroxymethyl)-4-(4-(3,4,5-trifluorophenyl)-1H-1,2,3-triazol-1-yl)tetrahydro-2H-pyran-2-yl)thio)-3-hydroxy-N,3-dimethylbutanamide]: the IC50 in test [1] (setting [5]) worked out at 60 nM; on human Gal-1 (hGal-1) it was 570 nM.
In the case of `O=C([C@@H](S[C@@H]1O[C@H](CO)[C@H](O)[C@H](n2cc(-c3cc(F)c(F)c(F)c3)nn2)[C@H]1O)C1(O)CCC1)N1CCC1` [Example 2.34.206S., (S)-1-(Azetidin-1-yl)-2-(((2S,3R,4S,5R,6R)-3,5-dihydroxy-6-(hydroxymethyl)-4-(4-(3,4,5-trifluorophenyl)-1H-1,2,3-triazol-1-yl)tetrahydro-2H-pyran-2-yl)thio)-2-(1-hydroxycyclobutyl)ethan-1-one], the IC50 in test [1] (setting [4]) came out at 340 nM; at human Gal-1 (hGal-1) it was 620 nM.
In the case of `CO[C@@H]1[C@@H](n2cc(-c3cc(F)c(F)c(F)c3)nn2)[C@@H](O)[C@@H](CO)O[C@H]1SC(C(=O)N(C)CC1CC1)C1(O)CCC(F)(F)CC1` (stereo partly drawn) [Example 2.44.218.I., N-(Cyclopropylmethyl)-2-(4,4-difluoro-1-hydroxycyclohexyl)-2-(((2S,3R,4S,5R,6R)-5-hydroxy-6-(hydroxymethyl)-3-methoxy-4-(4-(3,4,5-trifluorophenyl)-1H-1,2,3-triazol-1-yl)tetrahydro-2H-pyran-2-yl)thio)-N-methylacetamide], the figures for the IC50 (in test [1] (setting [2]); on human Gal-1 (hGal-1)) were 30 nM and 80 nM, respectively.
For `CN(Cc1cccs1)C(=O)C(S[C@@H]1O[C@H](CO)[C@H](O)[C@H](n2cc(-c3cc(F)c(F)c(F)c3)nn2)[C@H]1O)C1(O)CCOCC1` (stereo partly drawn) [Example 2.41.210., 2-(((2S,3R,4S,5R,6R)-3,5-dihydroxy-6-(hydroxymethyl)-4-(4-(3,4,5-trifluorophenyl)-1H-1,2,3-triazol-1-yl)tetrahydro-2H-pyran-2-yl)thio)-2-(4-hydroxytetrahydro-2H-pyran-4-yl)-N-methyl-N-(thiophen-2-ylmethyl)acetamide], the IC50 stood at 440 nM in test [1] (Gal-3 inhibition, Table 4, read-out: IC50) and 1120 nM at human Gal-1 (hGal-1).
Turning to `CCN(C)C(=O)[C@H](S[C@@H]1O[C@H](CO)[C@H](O)[C@H](n2cc(-c3cc(F)c(F)c(F)c3)nn2)[C@H]1O)C(O)(CC)CC` [Example 2.32.203R., (R)-2-(((2S,3R,4S,5R,6R)-3,5-Dihydroxy-6-(hydroxymethyl)-4-(4-(3,4,5-trifluorophenyl)-1H-1,2,3-triazol-1-yl)tetrahydro-2H-pyran-2-yl)thio)-N,3-diethyl-3-hydroxy-N-methylpentanamide], the IC50 in test [1] (setting [5]) worked out at 4550 nM; at human Gal-1 (hGal-1), 30800 nM.

(Values after US12410208B2, “(2-acetamidyl)thio-beta-D-galactopyranoside derivatives” (Idorsia Pharmaceuticals Ltd, priority 2020, dated 2025).)
